Reference: patent US12404289B2 (Gilead Sciences, Inc., priority 2020, dated 2025)
Where two headings read alike, the source gives them in different places.

How the values were obtained:
Type in all cases: cell-based
[1] = CC50 assay (cytopathology in HEp-2 cells); details: human
Procedure: The cytopathology of compounds in HEp-2 cells is determined in the following manner. HEp-2 cells are suspended in DMEM+GlutaMAX (supplemented with 10% FBS and 1% Penicillin/Streptomycin) and seeded into 96 well plates (3×10^3/well). After a 4-hour incubation at 37° C.+5% CO2, three-fold serial dilutions of compounds are added to each well using an HP D300e digital dispenser. The cells are then incubated for 4 days at 37° C. and 5% CO2. The final volume in each well is 200 μL. Untreated wells are included as controls for 100% cell viability, while compounds treated with 5 uM puromycin are included as controls for 0% viability. Following the incubation, 100 μL of culture supernatant is removed from each well and replaced with 100 μL of CellTiter-Glo reagent (Promega, Madison, WI, Cat #G7573). The plates are then rocked for 2 minutes followed by a 10-minute incubation at 25° C. Compound-induced cytopathic effect is then assessed by measuring luminescence signal using and Envision plate reader. Values are normalized to the untreated DMSO and puromycin-treated controls (as 100% and 0% viability, respectively) and data is fit using non-linear regression analysis using XLfit4. The CC50 value for each compound is then determined as the concentration reducing cell viability by 50%.

SARS-CoV-2 = SARS-CoV-2 antiviral assay (A549-hACE2, Nano luciferase); details: Severe acute respiratory syndrome coronavirus 2, 48 h, A549-hACE2 cells, SARS-CoV2-Nano, MOI 0.025, 48 h
[2] = test system: Respiratory syncytial virus (RSV) strain A2; experiment: RSV antiviral assay (HEp-2, 96 well); details: human respiratory syncytial virus
[3] = test system: Recombinant respiratory syncytial virus expressing the firefly luciferase protein (RSV-Fluc); experiment: microbe, parasite or virus in culture; details: human respiratory syncytial virus, NHBE, 72 h, read-out: EC50 RSVFluc NHBE 96, NHBE cells, RSV-Fluc, MOI of 0.1, three days, 96 well; Table 4
[4] = test system: Respiratory syncytial virus (RSV) strain A2; experiment: Hep-2 RSV2 384-well assay (EC50-HEP2-384); details: human respiratory syncytial virus, HEp-2, 96 h, HEp-2 cells, RSV A2, MOI=4, 4 days, Table 1
[5] = HEp-2 cells, 4 days, CellTiter-Glo, Table 1, read-out: RSV CC50
[6] = Table 4, read-out: EC50 SARS CoV2
[7] = HEp-2, 96 h, read-out: EC50-RSV-HEP-2-96, HEp-2 cells, RSV A2, MOI=4, 4 days, 96 well, CellTiter-Glo, Table 1
[8] = Table 1, read-out: SARS-CoV-2 EC50

| SMILES | CC50 at 4 days [1, 5] [µM] | EC50 (SARS-CoV-2; [6]) [µM] | EC50 [2, 7] [µM] | further results |
| --- | --- | --- | --- | --- |
| CCC(CC)COC(=O)[C@H](C)NP(=O)(OC[C@H]1O[C@@](C#N)(c2ccc3c(N)ncnn23)[C@H](OC(=O)C(C)C)[C@@H]1OC(=O)C(C)C)Oc1ccc(C(C)(C)C)cc1 (stereo partly drawn) [Example 14] | 2.73 | 0.186 | 0.029 | EC50 [3]: 0.00372 µM |
| COC(=O)[C@H](C)NP(=O)(OC[C@H]1O[C@@](C#N)(c2ccc3c(N)ncnn23)[C@H](OC(=O)C(C)C)[C@@H]1OC(=O)C(C)C)Oc1ccc(C(C)(C)C)cc1 (stereo partly drawn) [Example 16, (2R,3R,4R,5R)-2-(4-aminopyrrolo[2,1-f][1,2,4]triazin-7-yl)-5-((((4-(tert-butyl)phenoxy)(((S)-1-methoxy-1-oxopropan-2-yl)amino)phosphoryl)oxy)methyl)-2-cyanotetrahydrofuran-3,4-diyl bis(2-methylpropanoate)] | 2.84 | 0.199 | 0.0093 | EC50 (SARS-CoV-2; [8]): 0.0838 µM |
| COC(C)(C)COC(=O)[C@H](C)NP(=O)(OC[C@H]1O[C@@](C#N)(c2ccc3c(N)ncnn23)[C@H](OC(=O)C(C)C)[C@@H]1OC(=O)C(C)C)Oc1ccccc1 (stereo partly drawn) [Example 25, (2R,3R,4R,5R)-2-(4-aminopyrrolo[2,1-f][1,2,4]triazin-7-yl)-2-cyano-5-((((((S)-1-(2-methoxy-2-methylpropoxy)-1-oxopropan-2-yl)amino)(phenoxy)phosphoryl)oxy)methyl)tetrahydrofuran-3,4-diyl bis(2-methylpropanoate)] | 4.78 | 0.35 | 0.0111 | EC50 (SARS-CoV-2; [8]): 0.122 µM |
| CCC(CC)COC(=O)[C@H](C)N[P@](=O)(OC[C@H]1O[C@@](C#N)(c2ccc3c(N)ncnn23)[C@H](OC(=O)C(C)C)[C@@H]1OC(=O)C(C)C)Oc1ccccc1 [Example 1, (2R,3R,4R,5R)-2-(4-aminopyrrolo[2,1-f][1,2,4]triazin-7-yl)-2-cyano-5-((((S)—(((S)-1-(2-ethylbutoxy)-1-oxopropan-2-yl)amino)(phenoxy)phosphoryl)oxy)methyl) tetrahydrofuran-3,4-diyl bis(2-methylpropanoate)] | 5.49 | 0.338 | 0.122 | EC50 [3]: 0.00656 µM |
| CCOC(=O)[C@H](C)NP(=O)(OC[C@H]1O[C@@](C#N)(c2ccc3c(N)ncnn23)[C@H](OC(C)=O)[C@@H]1OC(C)=O)Oc1ccccc1 (stereo partly drawn) [Example 12, (2R,3R,4R,5R)-2-(4-aminopyrrolo[2,1-f][1,2,4]triazin-7-yl)-2-cyano-5-((((((S)-1-ethoxy-1-oxopropan-2-yl)amino)(phenoxy)phosphoryl)oxy)methyl)tetrahydrofuran-3,4-diyl Diacetate] | 30.9 | 0.139 | 0.166 | – |
| CCC(CC)COC(=O)[C@H](C)N[P@](=O)(OC[C@H]1O[C@@](C#N)(c2ccc3c(N)ncnn23)[C@H](OC(C)=O)[C@@H]1OC(C)=O)Oc1ccccc1 [Example 2, (2R,3R,4R,5R)-2-(4-aminopyrrolo[2,1-f][1,2,4]triazin-7-yl)-2-cyano-5-((((S)—(((S)-1-(2-ethylbutoxy)-1-oxopropan-2-yl)amino)(phenoxy)phosphoryl)oxy)methyl) tetrahydrofuran-3,4-diyl Diacetate] | 8.41 | 0.102 | 0.0844 | EC50 [3]: 0.00453 µM |
| COC(=O)[C@H](C)NP(=O)(OC[C@H]1O[C@@](C#N)(c2ccc3c(N)ncnn23)[C@H](O)[C@@H]1O)Oc1ccc(C(C)(C)C)cc1 (stereo partly drawn) [Example 15, Methyl ((((2R,3S,4R,5R)-5-(4-aminopyrrolo[2,1-f][1,2,4]triazin-7-yl)-5-cyano-3,4-dihydroxytetrahydrofuran-2-yl)methoxy)(4-(tert-butyl)phenoxy)phosphoryl)-L-alaninate] | 22.9 | 0.777 | 0.185 | – |
| CCOC(=O)[C@H](C)NP(=O)(OC[C@H]1O[C@@](C#N)(c2ccc3c(N)ncnn23)[C@H](OC(=O)C(C)C)[C@@H]1OC(=O)C(C)C)Oc1ccc(C(C)(C)C)cc1 (stereo partly drawn) [Example 18, (2R,3R,4R,5R)-2-(4-aminopyrrolo[2,1-f][1,2,4]triazin-7-yl)-5-((((4-(tert-butyl)phenoxy)(((S)-1-ethoxy-1-oxopropan-2-yl)amino)phosphoryl)oxy)methyl)-2-cyanotetrahydrofuran-3,4-diyl bis(2-methylpropanoate)] | 2.62 | 0.21 | 0.00775 | EC50 [3]: 0.00669 µM; EC50 [4]: 0.0834 µM |
| CCOC(=O)[C@H](C)NP(=O)(OC[C@H]1O[C@@](C#N)(c2ccc3c(N)ncnn23)[C@H](O)[C@@H]1O)Oc1ccc(C(C)(C)C)cc1 (stereo partly drawn) [Example 17, Ethyl ((((2R,3S,4R,5R)-5-(4-aminopyrrolo[2,1-f][1,2,4]triazin-7-yl)-5-cyano-3,4-dihydroxytetrahydrofuran-2-yl)methoxy)(4-(tert-butyl)phenoxy)phosphoryl)-L-alaninate] | 20.8 | 0.85 | 0.164 | – |
| CC(C)OC(=O)[C@H](C)N[P@](=O)(OC[C@H]1O[C@@](C#N)(c2ccc3c(N)ncnn23)[C@H](OC(=O)C(C)C)[C@@H]1OC(=O)C(C)C)Oc1ccccc1 [Example 7, (2R,3R,4R,5R)-2-(4-aminopyrrolo[2,1-f][1,2,4]triazin-7-yl)-2-cyano-5-((((S)—(((S)-1-isopropoxy-1-oxopropan-2-yl)amino)(phenoxy)phosphoryl)oxy)methyl) tetrahydrofuran-3,4-diyl bis(2-methylpropanoate)] | 12.6 | 0.372 | 0.0779 | EC50 (SARS-CoV-2; [8]): 0.241 µM |
| CCC(CC)COC(=O)[C@H](C)N[P@](=O)(OC[C@H]1O[C@@](C#N)(c2ccc3c(N)ncnn23)[C@H](O)[C@@H]1O)Oc1ccccc1 | – | – | – | CC50 at 4 days [1]: 6.08 µM; EC50 (SARS-CoV-2; Table 2, read-out: SARS-CoV-2 EC50): 0.11 µM; EC50 ([2]; 96 h, HEp-2 cells, RSV A2, MOI=4, 4 days, 96 well, Table 2, read-out: EC50-RSV-HEP-2-96): 0.0149 µM |
| COC(C)(C)COC(=O)[C@H](C)NP(=O)(OC[C@H]1O[C@@](C#N)(c2ccc3c(N)ncnn23)[C@H](O)[C@@H]1O)Oc1ccccc1 (stereo partly drawn) [Example 24, 2-Methoxy-2-methylpropyl ((((2R,3S,4R,5R)-5-(4-aminopyrrolo[2,1-f][1,2,4]triazin-7-yl)-5-cyano-3,4-dihydroxytetrahydrofuran-2-yl)methoxy)(phenoxy)phosphoryl)-L-alaninate] | > 50 | – | 1.47 | – |
| CCOC(=O)[C@H](C)NP(=O)(OC[C@H]1O[C@@](C#N)(c2ccc3c(N)ncnn23)[C@H](OC(=O)CC)[C@@H]1OC(=O)CC)Oc1ccccc1 (stereo partly drawn) [Example 11, (2R,3R,4R,5R)-2-(4-aminopyrrolo[2,1-f][1,2,4]triazin-7-yl)-2-cyano-5-((((((S)-1-ethoxy-1-oxopropan-2-yl)amino)(phenoxy)phosphoryl)oxy)methyl)tetrahydrofuran-3,4-diyl Dipropionate] | 12.8 | 0.208 | 0.0672 | EC50 (SARS-CoV-2; [8]): 0.0768 µM |
| CCOC(=O)[C@H](C)NP(=O)(OC[C@H]1O[C@@](C#N)(c2ccc3c(N)ncnn23)[C@H](O)[C@@H]1O)Oc1ccccc1 (stereo partly drawn) | – | – | – | CC50 at 4 days ([1]; HEp-2 cells, 4 days, CellTiter-Glo, Table 2, read-out: RSV CC50): > 70 µM; EC50 ([2]; HEp-2, 96 h, read-out: EC50-RSV-HEP-2-96, HEp-2 cells, RSV A2, MOI=4, 4 days, 96 well, Table 2): 0.296 µM |
| COC(=O)[C@H](C)N[P@](=O)(OC[C@H]1O[C@@](C#N)(c2ccc3c(N)ncnn23)[C@H](OC(=O)C(C)C)[C@@H]1OC(=O)C(C)C)Oc1ccccc1 [Example 4, (2R,3R,4R,5R)-2-(4-aminopyrrolo[2,1-f][1,2,4]triazin-7-yl)-2-cyano-5-((((S)—(((S)-1-methoxy-1-oxopropan-2-yl)amino)(phenoxy)phosphoryl)oxy)methyl)tetrahydrofuran-3,4-diyl bis(2-methylpropanoate)] | 5.58 | – | 0.0939 | – |
